Reference: US20080051384A1, “ANTIVIRAL AGENTS” (Genelabs Technologies, Inc., priority 2006, published 2008)

Assay: Replicon Assay (luciferase, ET cell line)
Format: cell-based, HCV
Details: Hepatitis C virus; tested at 6.25 μM; inhibition of replication (luciferase activity) relative to no compound control
Procedure: A cell line, ET (Huh-lucubineo-ET) was used for screening of compounds for inhibiting HCV RNA dependent RNA polymerase. The ET cell line was stably transfected with RNA transcripts harboring a I389luc-ubi-neo/NS3-3′/ET; replicon with firefly luciferase-ubiquitin-neomycin phosphotransferase fusion protein and EMCV-IRES driven NS3-5B polyprotein containing the cell culture adaptive mutations (E1202G; T12801; K1846T) (Krieger at al, 2001 and unpublished). The ET cells were grown in DMEM, supplemented with 10% fetal calf serum, 2 mM Glutamine, Penicillin (100 IU/mL)/Streptomycin (100 μg/mL), 1× nonessential amino acids, and 250 μg/mL G418 (“Geneticin”). They are all available through Life Technologies (Bethesda, Md.). The cells were plated at 0.5-1.0×10^4 cells/well in the 96 well plates and incubated for 24 hrs before adding test compound. The compounds were added to the cells to achieve a final concentration of 0.1 nM to 50 μm and a final DMSO concentration of 0.5%. Luciferase activity was measured 48-72 hours later by adding a lysis buffer and the substrate (Catalog number Glo-lysis buffer E2661 and Bright-Glo luciferase system E2620 Promega, Madison, Wis.). Cells should not be too confluent during the assay. Percent inhibition of replication data was plotted relative to no compound control. Under the same condition, cytotoxicity of the compounds were determined using cell proliferation reagent, WST-1 (Roche, Germany). The compounds showing antiviral activities, but no significant cytotoxicities were chosen to determine EC50 and TC50, the effective concentration and toxic concentration at which 50% of the maximum inhibition is observed. For these determinations, a 10 point, 2-fold serial dilution for each compound was used, which spans a concentration range of 1000 fold. EC50 and similarly the TC50 values were calculated by fitting % inhibition at each concentration to the following equation: % inhibition=100%/[(EC50/[I])^b+1] where b is Hill's coefficient.

Structure (SMILES)	inhibition at 6.25 µM [%]
Cc1nc(C)c(-c2ccc3cc(-c4c(C5CCCCC5)c5sc(C(=O)O)cc5n4CC(=O)N4CCCCC4)ccc3n2)s1 [compound 191, 6-cyclohexyl-5-[2-(2,4-dimethyl-thiazol-5-yl)-quinolin-6-yl]-4-(2-oxo-2-piperidin-1-yl-ethyl)-4H-thieno[3,2-b]pyrrole-2-carboxylic acid]	97
Cc1nc(C)c(-c2ccc3cc(-c4c(C5=CCCCC5)c5sc(C(=O)O)cc5n4CC(=O)N4CCOCC4)ccc3n2)s1 [compound 187, 6-Cyclohex-1-enyl-5-[2-(2,4-dimethyl-thiazol-5-yl)-quinolin-6-yl]-4-(2-morpholin-4-yl-2-oxo-ethyl)-4H-thieno[3,2-b]pyrrole-2-carboxylic acid]	63
Cc1nc(C)c(-c2ccc3cc(-c4c(C5CCCCC5)c5sc(C(=O)O)cc5n4CC(=O)N4CCOCC4)ccc3n2)s1 [compound 189, 6-cyclohexyl-5-[2-(2,4-dimethyl-thiazol-5-yl)-quinolin-6-yl]-4-(2-morpholin-4-yl-2-oxo-ethyl)-4H-thieno[3,2-b]pyrrole-2-carboxylic acid]	100
Cc1nc(C)c(-c2ccc3cc(-c4c(C5CCCCC5)c5sc(C(=O)O)cc5n4CC(=O)N4CCSCC4)ccc3n2)s1 [compound 190, 6-Cyclohexyl-5-[2-(2,4-dimethyl-thiazol-5-yl)-quinolin-6-yl]-4-(2-oxo-2-thiomorpholin-4-yl-ethyl)-4H-thieno[3,2-b]pyrrole-2-carboxylic acid]	98
O=C(O)c1cc2c(s1)c(C1=CCCCC1)c(-c1ccc3nc(-c4ccccc4F)ccc3c1)n2CC(=O)N1CCOCC1 [compound 186, 6-Cyclohex-1-enyl-5-[2-(2-fluoro-phenyl)-quinolin-6-yl]-4-(2-morpholin-4-yl-2-oxo-ethyl)-4H-thieno[3,2-b]pyrrole-2-carboxylic acid]	75
O=C(O)c1cc2c(s1)c(C1CCCCC1)c(-c1ccc3nc(-c4ccccc4F)ccc3c1)n2CC(=O)N1CCOCC1 [compound 188, 6-Cyclohexyl-5-[2-(2-fluoro-phenyl)-quinolin-6-yl]-4-(2-morpholin-4-yl-2-oxo-ethyl)-4H-thieno[3,2-b]pyrrole-2-carboxylic acid]	99
